Here are results for three compounds from BindingDB's records for PubMed 2925675 (Nagoya University School of Medicine, 1989).

Holding throughout (assay): Enzyme Assay
Common to all, as to settings: pH 7.4; 30 °C

The target in assay [1] is Protein kinase C alpha type (Homo sapiens, UniProt P17252).
The target of assay [2] is cAMP-dependent protein kinase type I-alpha regulatory subunit (Bos taurus, UniProt P00514).
The target in assay [3] is Calcium/calmodulin-dependent protein kinase II inhibitor 2 (Bos taurus, UniProt A5D7T0).
Sequence of Calcium/calmodulin-dependent protein kinase II inhibitor 2 (A5D7T0 whole entry, canonical isoform): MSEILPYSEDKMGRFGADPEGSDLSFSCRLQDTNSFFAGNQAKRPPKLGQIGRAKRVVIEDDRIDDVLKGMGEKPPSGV
Assay [4] deals with Casein kinase I isoform alpha (Homo sapiens, UniProt P48729). As to the method: (§1) Casein kinase activities were determined under the conditions as described by Huang et al (1982).
Sequence of Casein kinase I isoform alpha (P48729 whole entry, canonical isoform): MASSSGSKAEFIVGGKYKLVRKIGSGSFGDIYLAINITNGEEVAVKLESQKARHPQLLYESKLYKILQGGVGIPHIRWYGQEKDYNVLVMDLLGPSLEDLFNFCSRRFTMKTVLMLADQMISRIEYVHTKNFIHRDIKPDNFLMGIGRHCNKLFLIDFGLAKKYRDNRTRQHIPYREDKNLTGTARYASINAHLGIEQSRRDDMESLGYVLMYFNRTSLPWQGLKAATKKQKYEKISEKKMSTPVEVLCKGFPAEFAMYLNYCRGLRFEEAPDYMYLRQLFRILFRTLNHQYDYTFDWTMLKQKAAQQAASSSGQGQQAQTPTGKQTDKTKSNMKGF
Assay [5] addresses Casein kinase II subunit alpha (Homo sapiens, UniProt P68400). As to the method: as §1

Sequence of Casein kinase II subunit alpha (P68400 whole entry): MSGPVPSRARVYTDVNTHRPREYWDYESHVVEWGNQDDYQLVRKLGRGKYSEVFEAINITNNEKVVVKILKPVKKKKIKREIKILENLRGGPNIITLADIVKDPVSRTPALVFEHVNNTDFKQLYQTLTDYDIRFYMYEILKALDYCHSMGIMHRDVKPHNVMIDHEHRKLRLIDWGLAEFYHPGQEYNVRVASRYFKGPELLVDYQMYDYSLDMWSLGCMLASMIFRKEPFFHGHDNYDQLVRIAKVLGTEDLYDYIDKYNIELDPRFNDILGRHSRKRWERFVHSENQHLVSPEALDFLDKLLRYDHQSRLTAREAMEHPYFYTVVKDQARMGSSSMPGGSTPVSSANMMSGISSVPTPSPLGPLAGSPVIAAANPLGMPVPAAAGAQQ
Sequence of cAMP-dependent protein kinase type I-alpha regulatory subunit (P00514 whole entry): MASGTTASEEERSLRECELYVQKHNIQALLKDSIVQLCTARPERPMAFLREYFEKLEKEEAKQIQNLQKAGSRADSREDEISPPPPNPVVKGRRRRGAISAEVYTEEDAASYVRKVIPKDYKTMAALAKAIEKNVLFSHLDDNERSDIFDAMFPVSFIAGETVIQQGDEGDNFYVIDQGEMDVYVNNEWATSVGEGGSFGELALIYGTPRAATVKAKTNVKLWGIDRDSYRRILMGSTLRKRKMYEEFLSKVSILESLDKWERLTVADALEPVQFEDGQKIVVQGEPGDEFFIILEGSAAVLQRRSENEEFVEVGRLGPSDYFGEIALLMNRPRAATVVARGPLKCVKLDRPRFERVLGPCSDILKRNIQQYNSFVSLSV

With `NCCNS(=O)(=O)c1cccc2ccncc12` [Isoquinolinesulfonamide, CKI-6], the IC50 – broadly, the point on the concentration scale where inhibition reaches its midpoint – is over 1000 µM in assay [1]; over 1000 µM in assay [2]; 840 µM in assay [3]; 50 µM in assay [4]; over 300 µM in assay [5].
For `NCCNS(=O)(=O)c1cccc2cnccc12` [Isoquinoline-5-sulfonic acid (2-amino-ethyl)-amide], the IC50 in assay [1] was 18 µM; in assay [2] it was 3.6 µM; in assay [3], 58 µM; in assay [4] it was 110 µM; in assay [5], over 300 µM.
Take `NCCNS(=O)(=O)c1ccc(Cl)c2ccncc12` [Isoquinolinesulfonamide, CKI-7]: the IC50 in assay [1] is over 1000 µM; in assay [2] it was 550 µM; in assay [3] it was 195 µM; in assay [4], 9.5 µM; in assay [5] it was 90 µM.
